Measurements taken from publication PMC13266999, “Designing Antibiotics with Inherent Resistance to Efflux as a Strategy to Revive Discovery against Multidrug-Resistant Pathogens” (Journal of Medicinal Chemistry, 2026).
Values after ≈ are worked out from the molar mass of the structure shown. Read-outs that look alike come from different tables or passages of the source.

System: S. aureus
Assay: MIC (microbroth dilution)
Assay type: cell-based, Staphylococcus aureus
Details: for MIC: Staphylococcus aureus
Description: All bacteria were maintained on tryptic soy agar (TSA), except Streptococcus spp., which were maintained on Columbia agar plates containing 5% horse blood. […] Bacteria were grown to stationary phase in liquid culture overnight, with shaking at 200 rpm, before being back diluted to the relevant starting concentration for each assay below. MICs were measured by the microbroth dilution method. […] Absorbance at OD600 was read on a CLARIOstar spectrophotometer (BMG Labtech) and the MIC was defined as the minimum concentration of compound where no visible growth was detected. […] MICs were also performed in the presence of the outer membrane permeator, polymyxin b nonapeptide (PMBN) following the same MIC method but with the following variation. The 2-fold dilution series of compound was prepared as above, then 50 μL of PMBN at a final concentration of 30 μg/mL was added to relevant wells, while 50 μL/well of blank media was added to the remaining wells. Bacteria were then added at 50 μL/well for a starting concentration as above. […] The MICs were read and defined as above. All animal procedures were performed by the contract research organization Pharmacology Discovery Services Taiwan in accordance with the Guide for the Care and Use of Laboratory Animals. The procedures were approved by the Institutional Ethics Committee of Pharmacology Discovery Services Taiwan, Ltd. (approval no. AB127662), in compliance with animal welfare legislation in Taiwan.

[1] = ATCC9144, ATCC 9144, read-out: MIC
[2] = NCTC13277, NCTC 13277, read-out: MIC
[3] = NCTC13616, NCTC 13616, read-out: MIC

SMILES | MIC [1] [µg/mL] | MIC [2] [µg/mL] | MIC [3] [µg/mL] | MIC (SA-1199, read-out: MIC) [µg/mL] | MIC (SA-1199B (NorA-overexpressing)) [µg/mL] | fold potentiation compared to levofloxacin (fluoroquinolone-resistant NCTC 13616 and NCTC 13277) | fold loss of activity compared to 46
C[C@H]1COc2c(N3CC[C@H](Nc4ncccn4)C3)c(F)cc3c(=O)c(C(=O)O)cn1c23 [Compound 44, (S)-9-Fluoro-3-methyl-7-oxo-10-((S)-3-(pyrimidin-2-ylamino)pyrrolidin-1-yl)-2,3-dihydro-7H-[1,4]oxazino[2,3,4-ij]quinoline-6-carboxylic acid] | 0.25 (≈ 0.588 µM) | 8 (≈ 18.8 µM) | 8 (≈ 18.8 µM) | 0.25 (≈ 0.588 µM) | 0.25 (≈ 0.588 µM) | 2–4 fold | –
CCn1cc(C(=O)O)c(=O)c2cc(F)c(N3CCN(Cc4ccc(N(C)C)cc4)CC3)cc21 [Compound 32, 7-(4-(4-(Dimethylamino)benzyl)piperazin-1-yl)-1-ethyl-6-fluoro-4-oxo-1,4-dihydroquinoline-3-carboxylic acid] | 0.125 to 0.25 (≈ 0.276 to 0.552 µM) | > 32 | 16 to 32 (≈ 35.4 to 70.7 µM) | – | – | – | –
C[C@H]1COc2c(N3CCN(Cc4cccc5ccccc45)CC3)c(F)cc3c(=O)c(C(=O)O)cn1c23 [Compound 22, (S)-9-Fluoro-3-methyl-10-(4-(naphthalen-1-ylmethyl)piperazin-1-yl)-7-oxo-2,3-dihydro-7H-[1,4]oxazino[2,3,4-ij]quinoline-6-carboxylic acid] | 0.125 to 1 (≈ 0.256 to 2.05 µM) | 2 to 4 (≈ 4.1 to 8.2 µM) | 4 (≈ 8.2 µM) | 0.25 (≈ 0.513 µM) | 0.5 (≈ 1.03 µM) | – | –
CCn1cc(C(=O)O)c(=O)c2cc(F)c(N3CCNCC3)nc21 [Compound 3, enoxacin, reference compound] | 2 (≈ 6.24 µM) | 128 (≈ 400 µM) | > 128 | – | – | – | –
O=C(O)c1cn(C2CC2)c2cc(N3CCN(Cc4ccccc4)CC3)c(F)cc2c1=O [Compound 25, 7-(4-Benzylpiperazin-1-yl)-1-cyclopropyl-6-fluoro-4-oxo-1,4-dihydro quinoline-3-carboxylic acid] | 0.125 to 0.25 (≈ 0.297 to 0.593 µM) | 32 (≈ 75.9 µM) | 16 to 32 (≈ 38 to 75.9 µM) | – | – | – | –
CCn1cc(C(=O)O)c(=O)c2cc(F)c(N3CCN(Cc4cccc5c4OCO5)CC3)cc21 [Compound 34, 7-(4-(Benzo[d][1,3]dioxol-4-ylmethyl)piperazin-1-yl)-1-ethyl-6-fluoro-4-oxo-1,4-dihydroquinoline-3-carboxylic acid] | 0.5 (≈ 1.1 µM) | > 32 | > 32 | – | – | – | –
O=C(O)c1cn(C2CC2)c2cc(N3CCN(Cc4ccc(F)c5ccccc45)CC3)c(F)cc2c1=O [Compound 35, 1-Cyclopropyl-6-fluoro-7-(4-((4-fluoronaphthalen-1-yl)methyl)piperazin-1-yl)-4-oxo-1,4-dihydroquinoline-3-carboxylic acid] | 4 (≈ 8.17 µM) | 8 (≈ 16.3 µM) | 4 (≈ 8.17 µM) | – | – | – | –
CCn1cc(C(=O)O)c(=O)c2cc(F)c(N3CCN(Cc4cccc5ccccc45)CC3)cc21 [Compound 20, 1-Ethyl-6-fluoro-7-(4-(naphthalen-1-ylmethyl)piperazin-1-yl)-4-oxo-1,4-dihydroquinoline-3-carboxylic acid] | 1 (≈ 2.18 µM) | 2 (≈ 4.35 µM) | 2 (≈ 4.35 µM) | – | – | – | –
CCn1cc(C(=O)O)c(=O)c2cc(F)c(N3CCN(Cc4cccc5ccsc45)CC3)cc21 [Compound 38, 7-(4-(Benzo[b]thiophen-7-ylmethyl)piperazin-1-yl)-1-ethyl-6-fluoro-4-oxo-1,4-dihydroquinoline-3-carboxylic acid] | 0.25 (≈ 0.537 µM) | 2 (≈ 4.3 µM) | 2 (≈ 4.3 µM) | – | – | – | –
CCn1cc(C(=O)O)c(=O)c2cc(F)c(N3CCNCC3)cc21 [Compound 2, norfloxacin, reference compound] | 2 (≈ 6.26 µM) | > 128 | > 128 | – | – | – | –
CCn1cc(C(=O)O)c(=O)c2cc(F)c(N3CCN(Cc4cccc5ccccc45)CC3)nc21 [Compound 21, 1-Ethyl-6-fluoro-7-(4-(naphthalen-1-ylmethyl)piperazin-1-yl)-4-oxo-1,4-dihydro-1,8-naphthyridine-3-carboxylic acid] | 0.5 to 1 (≈ 1.09 to 2.17 µM) | 2 to 4 (≈ 4.34 to 8.69 µM) | 2 to 8 (≈ 4.34 to 17.4 µM) | – | – | – | –
C[C@H]1COc2c(N3CC[C@@H](N)C3)c(F)cc3c(=O)c(C(=O)O)cn1c23 [Compound 45, (S)-10-((R)-3-Aminopyrrolidin-1-yl)-9-fluoro-3-methyl-7-oxo-2,3-dihydro-7H-[1,4]oxazino[2,3,4-ij]quinoline-6-carboxylic acid] | 0.25 (≈ 0.72 µM) | 32 (≈ 92.1 µM) | 32 (≈ 92.1 µM) | – | – | – | 32- to 64 fold
CCn1cc(C(=O)O)c(=O)c2cc(F)c(N3CCN(Cc4ccccc4)CC3)cc21 [Compound 26, 7-(4-Benzylpiperazin-1-yl)-1-ethyl-6-fluoro-4-oxo-1,4-dihydroquinoline-3-carboxylic acid] | 0.25 (≈ 0.611 µM) | 16 to 32 (≈ 39.1 to 78.2 µM) | 16 (≈ 39.1 µM) | – | – | – | –
CCn1cc(C(=O)O)c(=O)c2cc(F)c(N3CCN(Cc4ccc(F)c5ccccc45)CC3)cc21 [Compound 36, 1-Ethyl-6-fluoro-7-(4-((4-fluoronaphthalen-1-yl)methyl)piperazin-1-yl)-4-oxo-1,4-dihydroquinoline-3-carboxylic acid] | 8 (≈ 16.8 µM) | 8 (≈ 16.8 µM) | 8 (≈ 16.8 µM) | – | – | – | –
O=C(O)c1cn(C2CC2)c2cc(N3CCN(Cc4cccc5ccsc45)CC3)c(F)cc2c1=O [Compound 37, 7-(4-(Benzo[b]thiophen-7-ylmethyl)piperazin-1-yl)-1-cyclopropyl-6-fluoro-4-oxo-1,4-dihydroquinoline-3-carboxylic acid] | < 0.125 | 2 (≈ 4.19 µM) | 2 (≈ 4.19 µM) | – | – | – | –
CN(C)c1ccc(CN2CCN(c3cc4c(cc3F)c(=O)c(C(=O)O)cn4C3CC3)CC2)cc1 [Compound 31, 1-Cyclopropyl-7-(4-(4-(dimethylamino)benzyl)piperazin-1-yl)-6-fluoro-4-oxo-1,4-dihydroquinoline-3-carboxylic acid] | 0.06 to 0.125 (≈ 0.129 to 0.269 µM) | 16 to 32 (≈ 34.4 to 68.9 µM) | 8 to 16 (≈ 17.2 to 34.4 µM) | 0.125 (≈ 0.269 µM) | 0.25 (≈ 0.538 µM) | – | –
O=C(O)c1cn(C2CC2)c2cc(N3CCN(Cc4ccc5ccccc5c4)CC3)c(F)cc2c1=O [Compound 23, 1-Cyclopropyl-6-fluoro-7-(4-(naphthalen-2-ylmethyl)piperazin-1-yl)-4-oxo-1,4-dihydroquinoline-3-carboxylic acid] | 0.125 (≈ 0.265 µM) | 2 (≈ 4.24 µM) | 2 (≈ 4.24 µM) | – | – | – | –
CCn1cc(C(=O)O)c(=O)c2cc(F)c(N3CCN(Cc4cccc5c4CCCC5)CC3)cc21 [Compound 30, 1-Ethyl-6-fluoro-4-oxo-7-(4-((5,6,7,8-tetrahydronaphthalen-1-yl)methyl)piperazin-1-yl)-1,4-dihydroquinoline-3-carboxylic acid] | 1 (≈ 2.16 µM) | 2 (≈ 4.31 µM) | 2 (≈ 4.31 µM) | 0.25 (≈ 0.539 µM) | 0.5 (≈ 1.08 µM) | – | –
O=C(O)c1cn(C2CC2)c2cc(N3CCN(Cc4ccc(-c5ccccc5)cc4)CC3)c(F)cc2c1=O [Compound 39, 7-(4-([1,1’-Biphenyl]-4-ylmethyl)piperazin-1-yl)-1-cyclopropyl-6-fluoro-4-oxo-1,4-dihydroquinoline-3-carboxylic acid] | 1 (≈ 2.01 µM) | 2 (≈ 4.02 µM) | 2 (≈ 4.02 µM) | – | – | – | –
C[C@H]1COc2c(N3CC[C@@H](Nc4ncc(F)cn4)C3)c(F)cc3c(=O)c(C(=O)O)cn1c23 [Compound 47, (S)-9-Fluoro-10-((R)-3-((5-fluoropyrimidin-2-yl)amino)pyrrolidin-1-yl)-3-methyl-7-oxo-2,3-dihydro-7H-[1,4]oxazino[2,3,4-ij]quinoline-6-carboxylic acid] | ≤ 0.125 | 1 (≈ 2.26 µM) | 0.5 (≈ 1.13 µM) | – | – | – | –
O=C(O)c1cn(C2CC2)c2cc(N3CCN(Cc4cccc5c4CCCC5)CC3)c(F)cc2c1=O [Compound 29, 1-Cyclopropyl-6-fluoro-4-oxo-7-(4-((5,6,7,8-tetrahydronaphthalen-1-yl)methyl)piperazin-1-yl)-1,4-dihydroquinoline-3-carboxylic acid] | 0.25 to 1 (≈ 0.526 to 2.1 µM) | 1 to 2 (≈ 2.1 to 4.21 µM) | 1 (≈ 2.1 µM) | 0.5 (≈ 1.05 µM) | 0.5 (≈ 1.05 µM) | – | –
CCn1cc(C(=O)O)c(=O)c2cc(F)c(N3CCN(Cc4ccc(-c5ccccc5)cc4)CC3)cc21 [Compound 40, 7-(4-([1,1’-Biphenyl]-4-ylmethyl)piperazin-1-yl)-1-ethyl-6-fluoro-4-oxo-1,4-dihydroquinoline-3-carboxylic acid] | 2 (≈ 4.12 µM) | 4 (≈ 8.24 µM) | 2 (≈ 4.12 µM) | – | – | – | –
CCn1cc(C(=O)O)c(=O)c2cc(F)c(N3CCN(Cc4cccc5cccnc45)CC3)cc21 [Compound 28, 1-Ethyl-6-fluoro-4-oxo-7-(4-(quinolin-8-ylmethyl)piperazin-1-yl)-1,4-dihydroquinoline-3-carboxylic acid] | 1 (≈ 2.17 µM) | 128 (≈ 278 µM) | 128 (≈ 278 µM) | – | – | – | –
O=C(O)c1cn(C2CC2)c2cc(N3CCN(Cc4cccc5cccnc45)CC3)c(F)cc2c1=O [Compound 27, 1-Cyclopropyl-6-fluoro-4-oxo-7-(4-(quinolin-8-ylmethyl)piperazin-1-yl)-1,4-dihydroquinoline-3-carboxylic acid] | 0.5 (≈ 1.06 µM) | 128 (≈ 271 µM) | 64 (≈ 135 µM) | 0.125 (≈ 0.265 µM) | 0.25 (≈ 0.529 µM) | – | –
